According to ChEMBL document CHEMBL2434896, “Carbonic anhydrase inhibitors. Synthesis of heterocyclic 4-substituted pyridine-3-sulfonamide derivatives and their inhibition of the human cytosolic isozymes I and II and transmembrane tumor-associated isozymes IX and XII” (Eur J Med Chem, 2013):
Active and inactive are the calls of the source. The calls are words filed in the database; no cut-off is given here.

What was measured:
Assay type in all cases: functional
[1] = tested on: LOX IMVI; assay: Growth inhibition of human LOXIMVI cells at 10 uM after 48 hrs by sulforhodamine B assay; conditions: for inhibition of growth at 10 µM: read-out: GI
[2] = tested on: RXF 393; assay: Growth inhibition of human RXF393 cells at 10 uM after 48 hrs by sulforhodamine B assay
[3] = tested on: COLO 205; assay: Growth inhibition of human COLO205 cells at 10 uM after 48 hrs by sulforhodamine B assay
[4] = tested on: MCF7; assay: Growth inhibition of human MCF7 cells at 10 uM after 48 hrs by sulforhodamine B assay; conditions: for inhibition of growth at 10 µM: MCF7, 48 h, read-out: GI
[5] = tested on: CAKI-1; assay: Growth inhibition of human CAKI-1 cells at 10 uM after 48 hrs by sulforhodamine B assay; conditions: for inhibition of growth at 10 µM: CAKI-1, 48 h, read-out: GI
[6] = (§1) Growth inhibition of human HCC2998 cells at 10 uM after 48 hrs by sulforhodamine B assay; conditions: HCC 2998, 48 h, read-out: GI
[7] = tested on: UACC-62; assay: Growth inhibition of human UACC62 cells at 10 uM after 48 hrs by sulforhodamine B assay; conditions: for inhibition of growth at 10 µM: UACC-62, 48 h, read-out: GI
[8] = tested on: OVCAR-8; assay: Growth inhibition of human OVCAR8 cells at 10 uM after 48 hrs by sulforhodamine B assay; conditions: for inhibition of growth at 10 µM: OVCAR-8, 48 h, read-out: GI
[9] = tested on: SK-MEL-2; assay: Growth inhibition of human SK-MEL-2 cells at 10 uM after 48 hrs by sulforhodamine B assay; conditions: for inhibition of growth at 10 µM: SK-MEL-2, 48 h, read-out: GI
[10] = tested on: NCI-H23; assay: Growth inhibition of human NCI-H23 cells at 10 uM after 48 hrs by sulforhodamine B assay; conditions: for inhibition of growth at 10 µM: NCI-H23, 48 h, read-out: GI
[11] = tested on: EKVX; assay: (§2) Growth inhibition of human EKVX cells at 10 uM after 48 hrs by sulforhodamine B assay
[12] = tested on: OVCAR-5; assay: Growth inhibition of human OVCAR5 cells at 10 uM after 48 hrs by sulforhodamine B assay; conditions: for inhibition of growth at 10 µM: OVCAR-5, 48 h, read-out: GI
[13] = tested on: SF-268; assay: Growth inhibition of human SF268 cells at 10 uM after 48 hrs by sulforhodamine B assay; conditions: for inhibition of growth at 10 µM: SF-268, 48 h, read-out: GI
[14] = tested on: Hs-578T; assay: (§3) Growth inhibition of human Hs 578T cells at 10 uM after 48 hrs by sulforhodamine B assay
[15] = tested on: BT-549; assay: Growth inhibition of human BT549 cells at 10 uM after 48 hrs by sulforhodamine B assay; conditions: for inhibition of growth at 10 µM: BT-549, 48 h, read-out: GI
[16] = tested on: HCC 2998; assay: as §1
[17] = Growth inhibition of human NCI-ADR-RES cells at 10 uM after 48 hrs by sulforhodamine B assay; conditions: read-out: GI
[18] = as §2; conditions: read-out: GI
[19] = as §3; conditions: read-out: GI

SMILES	growth inhibition (GI) [1]	growth inhibition (GI) [2]	inhibition of growth at 10 µM [4] [%]	inhibition of growth at 10 µM [5] [%]	growth inhibition (GI) [7]	inhibition of growth at 10 µM [8] [%]	growth inhibition (GI) [9]	growth inhibition (GI) [10]	growth inhibition (GI) [11]	growth inhibition (GI) [12]	growth inhibition (GI) [13]	growth inhibition (GI) [14]	inhibition of growth at 10 µM [15] [%]	growth inhibition (GI) [3]	growth inhibition (GI) [4]	growth inhibition (GI) [16]	inhibition of growth at 10 µM [7] [%]	inhibition of growth at 10 µM [12] [%]	inhibition of growth at 10 µM [1] [%]	inhibition of growth at 10 µM [18] [%]	also measured
CCc1cc(CC)n(-c2ccncc2S(N)(=O)=O)n1	inactive	inactive	10	1	inactive	9	inactive	inactive	inactive	inactive	inactive	inactive	2								inhibition of growth at 10 µM ([3]; COLO 205, 48 h, read-out: GI): 13%; inhibition of growth at 10 µM [6]: 6%
NS(=O)(=O)c1cnccc1N1CCC(Cc2ccccc2)CC1	inactive	inactive		3		1	inactive	inactive	inactive		inactive	inactive	13	inactive	inactive	inactive	3	1			
NS(=O)(=O)c1cnccc1N1CCN(c2ccc(Cl)c(Cl)c2)CC1			37	36								inactive	27	inactive			38	1	19	30	inhibition of growth at 10 µM ([2]; RXF 393, 48 h, read-out: GI): 8%; inhibition of growth at 10 µM [17]: 25%; inhibition of growth at 10 µM [6]: 17%; inhibition of growth at 10 µM [9]: 16%; inhibition of growth at 10 µM [10]: 33%; inhibition of growth at 10 µM [13]: 2%
NS(=O)(=O)c1cnccc1N1CCN(c2ccc(Cl)cc2)CC1		inactive	7	15			inactive			inactive	inactive	inactive		inactive		inactive	16		4	11	inhibition of growth at 10 µM [10]: 7%; growth inhibition (GI) [15]: inactive
NS(=O)(=O)c1cnccc1N1CCN(Cc2ccc3c(c2)OCO3)CC1		inactive			inactive		inactive	inactive	inactive		inactive	inactive	7	inactive	inactive	inactive		2	8		inhibition of growth at 10 µM [17]: 3%; growth inhibition (GI) [5]: inactive; growth inhibition (GI) [8]: inactive
Cc1ccc(C)c(N2CCN(c3ccncc3S(N)(=O)=O)CC2)c1	inactive	inactive		9		4	inactive	inactive	inactive		inactive	inactive	8	inactive	inactive	inactive	7	3			
NS(=O)(=O)c1cnccc1N1CCN(c2ccccn2)CC1		inactive	3	10	inactive	12				inactive	inactive		6	inactive		inactive			9	1	inhibition of growth at 10 µM [17]: 6%; inhibition of growth at 10 µM [9]: 1%; inhibition of growth at 10 µM [10]: 4%; inhibition of growth at 10 µM [19]: 20%
NS(=O)(=O)c1cnccc1N1CCN(c2ncccn2)CC1		inactive			inactive		inactive	inactive	inactive	inactive		inactive	7	inactive	inactive	inactive			4		growth inhibition (GI) [5]: inactive; growth inhibition (GI) [8]: inactive; inhibition of growth at 10 µM [13]: 5%
COc1ccccc1N1CCN(c2ccncc2S(N)(=O)=O)CC1		inactive	3					inactive			inactive	inactive		inactive		inactive	3	2	2	3	growth inhibition (GI) [5]: inactive; growth inhibition (GI) [8]: inactive; inhibition of growth at 10 µM [9]: 5%; growth inhibition (GI) [15]: inactive
